From US4128629A, “Extraction-free cortisol assay” (Corning Glass Works, priority 1977, dated 1978)
Values joined by “and” are separate entries in the source; they are usually repeats but may differ in a detail not shown here. Equal values may be shown once.

Key:
[1] = system: anticortisol antibody composite; experiment: Cross-reactivity (specificity) of the solid phase cortisol radioimmunoassay; assay type: binding; parameters: key: ratio of cortisol to cross-reactant amount at 50% displacement; settings: ratio of the cortisol level to the steroid level at fifty percent relative displacement of labeled cortisol from immobilized anti-cortisol antibody
Description: (§1) A lyophilized mixture of the tracer (about 50,000 DPM), 200 μg of ANS, and PBS is reconstituted to a 100 μl solution with water in an identified glass test tube to which is pipetted a […] serum sample having an unknown cortisol concentration. A non-interferring red dye such as Durkees Staff Brand may be included with the tracer solution to indicate that presence of the tracer.
(§2) Then, a 1 ml suspension of the immobilized antibodies (0.20 mg of anti-cortisol antibodies chemically coupled via N-hydroxysuccinimide linkage to silanized glass particles having an average particle size of about 1.7 microns is pipetted into the tube. The tube is vortexed for 2 or 3 seconds, allowing the composite of immobilized antibodies to be suspended. The reaction tube is incubated for about 1 hour at room temperature. The tube is then centrifuged for about 10 minutes at about 1400 to 1600 gravities (g). The relatively high density of the glass support facilitates this separation step. After centrifugation, the supernatant fluid is decanted and it or the composite at the bottom of the tube is counted for radioactivity. Since the amount of radioactivity in disintegrations per minute (DPM) of the initial tracer was known, the amount associated with the composite (that which competed with the unknown cortisol for sites on the composite), provides an indication of the cortisol present, using known correlation techniques.
The cross-reactivity of the anticortisol antibody composite for a substance may be expressed as the ratio of the amount of cortisol required to displace 50% of the labeled antigen from the antibody, to the amount of cross-reacting substance needed to cause a similar displacement.

transcortin (TC) = target: T1, transcortin (TC) (Homo sapiens, UniProt P08185); experiment: Cortisol released from serum sample (release from TC) by ANS and pH, compared with heat denaturation; settings: typical patient serum samples; one value per patient sample; compared with heating at 100° C. for about 10 min
T1 sequence (P08185 23-405): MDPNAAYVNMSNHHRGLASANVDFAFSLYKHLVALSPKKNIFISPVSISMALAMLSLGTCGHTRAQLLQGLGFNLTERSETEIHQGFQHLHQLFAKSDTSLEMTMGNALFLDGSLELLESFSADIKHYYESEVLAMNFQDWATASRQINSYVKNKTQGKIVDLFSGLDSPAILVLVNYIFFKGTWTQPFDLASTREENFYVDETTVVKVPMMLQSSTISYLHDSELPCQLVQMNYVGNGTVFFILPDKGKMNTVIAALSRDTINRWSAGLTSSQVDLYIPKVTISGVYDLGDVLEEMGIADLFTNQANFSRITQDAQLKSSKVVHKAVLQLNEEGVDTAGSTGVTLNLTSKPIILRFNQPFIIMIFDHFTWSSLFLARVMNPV
Description: as §1
as §2, with “Since the amount of radioactivity in disintegrations per minute (DPM) of the initial tracer was known, the amount associated with the composite (that which competed with the unknown cortisol for sites on the composite), provides an indication of the cortisol present, using known correlation techniques.” left out

SMILES | Ratio of Cross Reactivity [1] | Cortisol Released (transcortin (TC))
C[C@]12CCC(=O)C[C@@H]1CC[C@@H]1[C@@H]2CC[C@]2(C)[C@@H](O)CC[C@@H]12 [5α-Dihydrotestosterone] | 0.007 | 
C[C@]12CC[C@H]3[C@@H](CCC4=CC(=O)CC[C@@]43C)[C@@H]1CC[C@@H]2C(=O)CO [11-Desoxycorticosterone] | 0.10 | 
C[C@]12CCC(=O)C=C1CC[C@@H]1[C@@H]2CC[C@@]2(C)[C@H]1CC[C@]2(O)C(=O)CO [11-Desoxycortisol] | 0.11 | 
CC(=O)[C@@]1(O)CC[C@H]2[C@@H]3CCC4=CC(=O)CC[C@]4(C)[C@H]3CC[C@@]21C [17α-Hydroxyprogesterone] | 0.026 | 
C[C@@H](O)[C@H]1CC[C@H]2[C@@H]3CCC4=CC(=O)CC[C@]4(C)[C@H]3CC[C@]12C [20β-Hydroxyprogesterone] | 0.026 | 
O=S(=O)(O)c1cccc2cccc(Nc3ccccc3)c12 [ANS, 8-anilino-1-naphthalene sulfonic acid] |  | 59 ng/mL and 90 ng/mL and 270 ng/mL and 465 ng/mL
C[C@]12CCC(=O)C=C1CC[C@@H]1[C@@H]2CC[C@]2(C)C(=O)CC[C@@H]12 [Androstenedione] | < 0.004 | 
CC(C)CCC[C@@H](C)[C@H]1CC[C@H]2[C@@H]3CC=C4C[C@@H](O)CC[C@]4(C)[C@H]3CC[C@]12C [Cholesterol] | < 0.001 | 
C[C@]12C[C@H](O)[C@H]3[C@@H](CCC4=CC(=O)CC[C@@]43C)[C@@H]1CC[C@@H]2C(=O)CO [Corticosterone] | 0.12 | 
C[C@]12CCC(=O)C=C1CC[C@@H]1[C@@H]2[C@@H](O)C[C@@]2(C)[C@H]1CC[C@]2(O)C(=O)CO [Cortisol] | 1.00 | 
C[C@]12CCC(=O)C=C1CC[C@@H]1[C@@H]2C(=O)C[C@@]2(C)[C@H]1CC[C@]2(O)C(=O)CO [Cortisone] | 0.008 | 
C[C@]12CC[C@@H]3c4ccc(O)cc4CC[C@H]3[C@@H]1CC[C@@H]2O [Estradiol-17β] | < 0.001 | 
C[C@]12CC[C@@H]3c4ccc(O)cc4CC[C@H]3[C@@H]1C[C@@H](O)[C@@H]2O [Estriol] | < 0.001 | 
C[C@]12CC[C@@H]3c4ccc(O)cc4CC[C@H]3[C@@H]1CCC2=O [Estrone] | < 0.001 | 
C[C@]12C=CC(=O)C=C1CC[C@@H]1[C@@H]2[C@@H](O)C[C@@]2(C)[C@H]1CC[C@]2(O)C(=O)CO [Prednisolone] | 0.10 | 
C[C@]12C=CC(=O)C=C1CC[C@@H]1[C@@H]2C(=O)C[C@@]2(C)[C@H]1CC[C@]2(O)C(=O)CO [Prednisone] | 0.004 | 
CC(=O)[C@H]1CC[C@H]2[C@@H]3CCC4=CC(=O)CC[C@]4(C)[C@H]3CC[C@]12C [Progesterone] | 0.041 | 
C[C@]12CC[C@H]3[C@@H](CCC4=CC(=O)CC[C@@]43C)[C@@H]1CC[C@@H]2O [Testosterone] | 0.002 | 
C[C@]12CC[C@@H](O)C[C@H]1CC[C@@H]1[C@@H]2[C@@H](O)C[C@@]2(C)[C@H]1CC[C@]2(O)C(=O)CO [Tetrahydrocortisol] | < 0.001 | 
